Measurements reported in patent US20250108038A1 (priority 2023, published 2025).
Values joined by “and” are separate entries in the source; they are usually repeats but may differ in a detail not shown here. Identical values can stand only once. Counter-ions that a name gives are not always drawn.

System: Long Evans rats
Experiment: Behavioral satiety sequence (BSS)
Format: in vivo, Long Evans rat
Text: The Behavioural Satiety Sequence (BSS) is a technique used to evaluate physiological satiety. It is based on the expression of a sequence of behaviors including eating, grooming, locomotor activity, followed by resting, which are typically observed in rodents post-ingestion (Halford et al, 1998, Pharmacology Biochemistry and Behaviour. 61(2): 159-168). The BSS is a widely used model for determining the effects of novel pharmaceuticals on food intake and measures of satiety in rodents (Oliveira et al, 2011, Revista de Nutrição. 24(4) 619-628), and to discriminate the cause of reduced food intake following pharmacological manipulation. For example, treatments that may reduce food intake by non-specific mechanisms, such as immobility, malaise, and taste adulteration, will disrupt this sequence (Halford et al, 1998, Pharmacology Biochemistry and Behaviour. 61(2): 159-168).
Specifically, 12 male Long-Evans rats were food-deprived for 22 h with a 2 h feeding period each day. Rats were trained to consume daily food during the 2 h period over 25 days. The testing phase was initiated once the rats consistently consumed 16-18 g of food per day with ≤10% variance in amount of feed consumed. Feeding took place in designated individual boxes in a quiet room separate from the housing room. Continuous remote monitoring via video camera during feeding was used to assess the BSS. Food consumption was measured by weighing the total available food before and after the 2 h feeding window, correcting for spillage. Lorcaserin (1 mg/kg) was included as a reference control (Higgins et al, 2011, Neuropsychopharmacology. 37(5): 1177-1191). Subjects were tested using a repeated-measures, Latin square design with 2-3 days wash-out between treatment cycles.
On scheduled test days, animals were monitored remotely via video camera during the feeding access period. The occurrence of four mutually exclusive behaviors (eating/drinking, grooming, active, rest) were individually scored. Over the 2 h feeding period, behaviors were assessed every 30 seconds. Scores were compiled into 23 5 min timebins (timebin 24 was removed due to early removal of animals) and the frequency of each behavior within each timebin was calculated to determine a temporal frequency of each measure (Rodgers et al, 2010, Pharmacology Biochemistry and Behaviour. 97: 3-14). Percentage time was plotted for each behavioral sequence in each timebin to compare between treatment groups (Higgins et al, 2011, Neuropsychopharmacology. 37(5): 1177-1191).

[1] = Lorcaserin 1 mg/kg, AVG of animals LT-1 to LT-12, 0-0.5 hours
[2] = Lorcaserin 1 mg/kg, raw data per animal LT-1 to LT-12, 0-0.5 hours, hydrochloride
[3] = lorcaserin 1 mg/kg, AVG of animals LT-1 to LT-12
[4] = lorcaserin 1 mg/kg, raw score per animal (LT-1 to LT-12), hydrochloride

C[C@H]1CNCCc2ccc(Cl)cc21 [lorcaserin, Lorcaserin hydrochloride, reference compound]
BSS scoring R (resting), Time Bin 12 (55-60 TOTAL) (Lorcaserin 1 mg/kg s.c., raw score per animal, hydrochloride): 0 (10×) and 1 (2×) | BSS scoring A (active), Time Bin 1 (0-5 TOTAL), AVG [1]: 0.17 | BSS scoring A (active), Time Bin 2 (5-10 TOTAL), AVG [1]: 0.08 | BSS scoring A (active), Time Bin 3 (10-15 TOTAL), AVG [1]: 0.09 | BSS scoring A (active), Time Bin 4 (15-20 TOTAL), AVG [1]: 0.10 | BSS scoring A (active), Time Bin 5 (20-25 TOTAL), AVG [1]: 0.18 | BSS scoring A (active), Time Bin 6 (25-30 TOTAL), AVG [1]: 0.15 | BSS scoring E (eating/drinking), Time Bin 1 (0-5 TOTAL), AVG [1]: 0.75 | BSS scoring E (eating/drinking), Time Bin 2 (5-10 TOTAL), AVG [1]: 0.83 | BSS scoring E (eating/drinking), Time Bin 3 (10-15 TOTAL), AVG [1]: 0.78 | BSS scoring E (eating/drinking), Time Bin 4 (15-20 TOTAL), AVG [1]: 0.78 | BSS scoring E (eating/drinking), Time Bin 5 (20-25 TOTAL), AVG [1]: 0.71 | BSS scoring E (eating/drinking), Time Bin 6 (25-30 TOTAL), AVG [1]: 0.75 | BSS scoring G (grooming), Time Bin 1 (0-5 TOTAL), AVG [1]: 0.08 | BSS scoring G (grooming), Time Bin 2 (5-10 TOTAL), AVG [1]: 0.09 | BSS scoring G (grooming), Time Bin 3 (10-15 TOTAL), AVG [1]: 0.10 | BSS scoring G (grooming), Time Bin 4 (15-20 TOTAL), AVG [1]: 0.09 | BSS scoring G (grooming), Time Bin 5 (20-25 TOTAL), AVG [1]: 0.12 | BSS scoring G (grooming), Time Bin 6 (25-30 TOTAL), AVG [1]: 0.05 | BSS scoring R (resting), Time Bin 1 (0-5 TOTAL), AVG [1]: 0.01 | BSS scoring R (resting), Time Bin 2 (5-10 TOTAL), AVG [1]: 0.01 | BSS scoring R (resting), Time Bin 3 (10-15 TOTAL), AVG [1]: 0.02 | BSS scoring R (resting), Time Bin 4 (15-20 TOTAL), AVG [1]: 0.03 | BSS scoring R (resting), Time Bin 5 (20-25 TOTAL), AVG [1]: 0.00 | BSS scoring R (resting), Time Bin 6 (25-30 TOTAL), AVG [1]: 0.05 | BSS scoring R (resting), Time Bin 5 (20-25 TOTAL) (Lorcaserin 1 mg/kg, raw data per animal LT-1 to LT-12, 0-0.5 hours): 0 | BSS scoring A (active), Time Bin 1 (0-5 TOTAL) [2]: 3 (3×) and 2 (4×) and 1 (3×) and 0 (2×) | BSS scoring A (active), Time Bin 2 (5-10 TOTAL) [2]: 1 (3×) and 0 (6×) and 2 (3×) | BSS scoring A (active), Time Bin 3 (10-15 TOTAL) [2]: 1 (7×) and 0 (3×) and 2 (2×) | BSS scoring A (active), Time Bin 4 (15-20 TOTAL) [2]: 3 (3×) and 1 (3×) and 0 (6×) | BSS scoring A (active), Time Bin 5 (20-25 TOTAL) [2]: 0 (3×) and 1 (3×) and 3 (2×) and 4 (2×) and 2 (2×) | BSS scoring A (active), Time Bin 6 (25-30 TOTAL) [2]: 2 (2×) and 0 (4×) and 1 (4×) and 7 and 3 | BSS scoring E (eating/drinking), Time Bin 1 (0-5 TOTAL) [2]: 7 (4×) and 6 (3×) and 8 (2×) and 10 and 9 (2×) | BSS scoring E (eating/drinking), Time Bin 2 (5-10 TOTAL) [2]: 6 (2×) and 9 (4×) and 8 (3×) and 7 and 10 (2×) | BSS scoring E (eating/drinking), Time Bin 3 (10-15 TOTAL) [2]: 8 (6×) and 5 and 7 and 6 and 10 and 9 (2×) | BSS scoring E (eating/drinking), Time Bin 4 (15-20 TOTAL) [2]: 7 (3×) and 8 and 6 (3×) and 10 and 9 (4×) | BSS scoring E (eating/drinking), Time Bin 5 (20-25 TOTAL) [2]: 9 (2×) and 8 (4×) and 7 (3×) and 4 (2×) and 6 | BSS scoring E (eating/drinking), Time Bin 6 (25-30 TOTAL) [2]: 7 (2×) and 9 (4×) and 10 and 8 (3×) and 1 and 5 | BSS scoring G (grooming), Time Bin 1 (0-5 TOTAL) [2]: 0 (4×) and 2 and 1 (7×) | BSS scoring G (grooming), Time Bin 2 (5-10 TOTAL) [2]: 3 and 1 (4×) and 0 (5×) and 2 (2×) | BSS scoring G (grooming), Time Bin 3 (10-15 TOTAL) [2]: 1 (4×) and 2 (4×) and 0 (4×) | BSS scoring G (grooming), Time Bin 4 (15-20 TOTAL) [2]: 0 (4×) and 1 (5×) and 2 (3×) | BSS scoring G (grooming), Time Bin 5 (20-25 TOTAL) [2]: 1 (3×) and 2 (4×) and 0 (4×) and 3 | BSS scoring G (grooming), Time Bin 6 (25-30 TOTAL) [2]: 0 (7×) and 1 (4×) and 2 | BSS scoring R (resting), Time Bin 1 (0-5 TOTAL) [2]: 0 (11×) and 1 | BSS scoring R (resting), Time Bin 2 (5-10 TOTAL) [2]: 0 (11×) and 1 | BSS scoring R (resting), Time Bin 3 (10-15 TOTAL) [2]: 0 (10×) and 1 (2×) | BSS scoring R (resting), Time Bin 4 (15-20 TOTAL) [2]: 0 (8×) and 1 (4×) | BSS scoring R (resting), Time Bin 6 (25-30 TOTAL) [2]: 1 (3×) and 0 (8×) and 3 | BSS scoring A (active), Time Bin 19 (90-95 TOTAL), AVG [3]: 0.10 | BSS scoring A (active), Time Bin 20 (95-100 TOTAL), AVG [3]: 0.08 | BSS scoring A (active), Time Bin 21 (100-105 TOTAL), AVG [3]: 0.06 | BSS scoring A (active), Time Bin 22 (105-110 TOTAL), AVG [3]: 0.02 | BSS scoring A (active), Time Bin 23 (110-115 TOTAL), AVG [3]: 0.06 | BSS scoring A (active), Time Bin 24 (115-120 TOTAL), AVG [3]: 0.10 | BSS scoring E (eating/drinking), Time Bin 19 (90-95 TOTAL), AVG [3]: 0.77 | BSS scoring E (eating/drinking), Time Bin 20 (95-100 TOTAL), AVG [3]: 0.75 | BSS scoring E (eating/drinking), Time Bin 21 (100-105 TOTAL), AVG [3]: 0.84 | BSS scoring E (eating/drinking), Time Bin 22 (105-110 TOTAL), AVG [3]: 0.84 | BSS scoring E (eating/drinking), Time Bin 23 (110-115 TOTAL), AVG [3]: 0.75 | BSS scoring E (eating/drinking), Time Bin 24 (115-120 TOTAL), AVG [3]: 0.58 | BSS scoring G (grooming), Time Bin 19 (90-95 TOTAL), AVG [3]: 0.04 | BSS scoring G (grooming), Time Bin 20 (95-100 TOTAL), AVG [3]: 0.05 | BSS scoring G (grooming), Time Bin 21 (100-105 TOTAL), AVG [3]: 0.05 | BSS scoring G (grooming), Time Bin 22 (105-110 TOTAL), AVG [3]: 0.01 | BSS scoring G (grooming), Time Bin 23 (110-115 TOTAL), AVG [3]: 0.08 | BSS scoring G (grooming), Time Bin 24 (115-120 TOTAL), AVG [3]: 0.07 | BSS scoring R (resting), Time Bin 19 (90-95 TOTAL), AVG [3]: 0.09 | BSS scoring R (resting), Time Bin 20 (95-100 TOTAL), AVG [3]: 0.12 | BSS scoring R (resting), Time Bin 21 (100-105 TOTAL), AVG [3]: 0.05 | BSS scoring R (resting), Time Bin 22 (105-110 TOTAL), AVG [3]: 0.13 | BSS scoring R (resting), Time Bin 23 (110-115 TOTAL), AVG [3]: 0.11 | BSS scoring R (resting), Time Bin 24 (115-120 TOTAL), AVG [3]: 0.08 | BSS scoring A (active), Time Bin 19 (90-95 TOTAL) [4]: 2 (3×) and 0 (7×) and 3 (2×) | BSS scoring A (active), Time Bin 20 (95-100 TOTAL) [4]: 0 (7×) and 1 (2×) and 4 and 2 (2×) | BSS scoring A (active), Time Bin 21 (100-105 TOTAL) [4]: 0 (7×) and 1 (4×) and 3 | BSS scoring A (active), Time Bin 22 (105-110 TOTAL) [4]: 0 (11×) and 2 | BSS scoring A (active), Time Bin 23 (110-115 TOTAL) [4]: 0 (6×) and 1 (5×) and 2 | BSS scoring A (active), Time Bin 24 (115-120 TOTAL) [4]: 0 (8×) and 6 and 1 and 3 and 2 | BSS scoring E (eating/drinking), Time Bin 19 (90-95 TOTAL) [4]: 8 and 9 (3×) and 5 (2×) and 10 (2×) and 7 (3×) and 6 | BSS scoring E (eating/drinking), Time Bin 20 (95-100 TOTAL) [4]: 9 (5×) and 8 and 0 and 10 (2×) and 4 and 6 and 7 | BSS scoring E (eating/drinking), Time Bin 21 (100-105 TOTAL) [4]: 8 (4×) and 9 (2×) and 7 (3×) and 10 (3×) | BSS scoring E (eating/drinking), Time Bin 22 (105-110 TOTAL) [4]: 7 and 8 (4×) and 9 (3×) and 10 (3×) and 5 | BSS scoring E (eating/drinking), Time Bin 23 (110-115 TOTAL) [4]: 6 (5×) and 8 (3×) and 9 (4×) | BSS scoring E (eating/drinking), Time Bin 24 (115-120 TOTAL) [4]: 10 (2×) and 9 and 0 (2×) and 7 (2×) and 4 (2×) and 5 and 6 and 8 | BSS scoring G (grooming), Time Bin 19 (90-95 TOTAL) [4]: 0 (9×) and 3 and 1 (2×) | BSS scoring G (grooming), Time Bin 20 (95-100 TOTAL) [4]: 0 (7×) and 1 (4×) and 2 | BSS scoring G (grooming), Time Bin 21 (100-105 TOTAL) [4]: 0 (7×) and 1 (4×) and 2 | BSS scoring G (grooming), Time Bin 22 (105-110 TOTAL) [4]: 0 (11×) and 1 | BSS scoring G (grooming), Time Bin 23 (110-115 TOTAL) [4]: 4 and 2 (2×) and 0 (7×) and 1 (2×) | BSS scoring G (grooming), Time Bin 24 (115-120 TOTAL) [4]: 0 (7×) and 2 (3×) and 1 (2×) | BSS scoring R (resting), Time Bin 19 (90-95 TOTAL) [4]: 0 (6×) and 1 (3×) and 3 (2×) and 2 | BSS scoring R (resting), Time Bin 20 (95-100 TOTAL) [4]: 1 (5×) and 0 (5×) and 7 and 2 | BSS scoring R (resting), Time Bin 21 (100-105 TOTAL) [4]: 2 and 0 (9×) and 3 and 1 | BSS scoring R (resting), Time Bin 22 (105-110 TOTAL) [4]: 3 (2×) and 2 (4×) and 0 (4×) and 1 (2×) | BSS scoring R (resting), Time Bin 23 (110-115 TOTAL) [4]: 0 (3×) and 1 (6×) and 2 (2×) and 3 | BSS scoring R (resting), Time Bin 24 (115-120 TOTAL) [4]: 0 (7×) and 1 (2×) and 4 and 2 (2×)
